Laboratory results reported in PubChem BioAssay (NCI).
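Following 48 hours of exposure in 96-well plates, responses at five concentrations were used to interpolate endpoints linearly. The concentration for 50% growth inhibition is given as GI50. TGI marks complete inhibition of growth.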

Tests used:
Assay in all cases: NCI tumour cell line growth inhibition, 48 h
ACHN renal = tested on: ACHN renal
HOP-92 NSCLC = tested on: HOP-92 NSCLC
OVCAR-8 ovarian = tested on: OVCAR-8 ovarian
SR leukemia = tested on: SR leukemia
BT-549 breast = tested on: BT-549 breast
MDA-MB-231 breast = tested on: MDA-MB-231 breast
MDA-MB-435 = tested on: MDA-MB-435
MDA-N = tested on: MDA-N
SNB-75 CNS = tested on: SNB-75 CNS
T-47D breast = tested on: T-47D breast
P388 leukemia = tested on: P388 leukemia

SMILES	TGI (ACHN renal)	TGI (HOP-92 NSCLC)	TGI (OVCAR-8 ovarian)	TGI (SR leukemia)	TGI (BT-549 breast)	TGI (MDA-MB-231 breast)	TGI (MDA-MB-435)	TGI (SNB-75 CNS)	TGI (T-47D breast)	TGI (P388 leukemia)	further results
O=Cc1ccc(CCl)cc1	54 µM	52.5 µM	35.2 µM	> 100 µM							
COC(=O)C1=C(OC(=O)/C=C/c2ccc(Cl)cc2)C(C(=O)OC)[C@@]2(O)[C@@H](C(=O)OC)[C@H](C)C[C@@H]1[C@@H]2C(=O)OC (some centres not stated)	80 µM		41.6 µM		53.7 µM	64.9 µM	> 100 µM	> 100 µM	> 100 µM		TGI (MDA-N): 29.5 µM
COC1(O)c2cccc(Cl)c2C(=O)N1C1(C(N)=O)CCCCC1 (configuration not stated)		40.7 µM	> 100 µM					> 100 µM		> 100 µM	
CSc1nc2c(ncn2C2OCC(O)C(O)C2O)c(=O)n1C (configuration not stated)		> 100 µM	> 100 µM					> 100 µM		> 100 µM	
COc1cc2c(cc1OC)C(=O)/C(=C/c1cc(OC)c(OC)c(OC)c1)C2		> 100 µM	> 100 µM	> 100 µM	> 100 µM	> 100 µM	> 100 µM	> 100 µM	> 100 µM		TGI (MDA-N): > 100 µM
CN1CCN(Cc2ccc(NC(=O)c3cccc(C#Cc4cnc(N)c5ncccc45)c3F)cc2C(F)(F)F)CC1	1.09 µM	4.63 µM	1.78 µM		11 µM	1.75 µM	1.53 µM	7.48 µM	14.8 µM		GI50 (ACHN renal): 0.477 µM; GI50 (BT-549 breast): 3.1 µM; GI50 (HOP-92 NSCLC): 1.27 µM; GI50 (MDA-MB-231 breast): 0.773 µM; GI50 (MDA-MB-435): 0.789 µM; GI50 (OVCAR-8 ovarian): 0.828 µM; GI50 (SNB-75 CNS): 1.59 µM; GI50 (T-47D breast): 5.78 µM
CC(=O)NC(Cc1ccsc1)C(=O)O (configuration not stated)		> 100 µM	> 100 µM					> 100 µM		> 100 µM	
COc1cccc(NC(=O)C(=O)C(C(=O)c2ccccc2F)C2OC(=O)c3ccccc32)c1 (configuration not stated)	> 100 µM	> 100 µM	60.9 µM	48.5 µM				70.9 µM			
COC(=O)C(C/C=C(\C)c1ccc(Cl)cc1)C(C)=O (configuration not stated)		64.2 µM	> 100 µM					> 94.6 µM		46 µM	
COc1ccc2[nH]c3c(C)c4ccnc(NCCCN(C)CCCNc5ccc6ncn7c8ccccc8c(=O)c5c67)c4c(C)c3c2c1	0.918 µM	19.2 µM	7.16 µM	1.61 µM	3.99 µM	1.2 µM	4.45 µM	7.38 µM	9.46 µM		TGI (MDA-N): 4.29 µM
O=C(O)C12CCCCC1CCCC2 (configuration not stated)	> 100 µM	> 100 µM	> 100 µM					> 100 µM			
